Counter-ions that a name gives are not always drawn.
SMILES	melting point
CCCC(CCC)c1ccc(Cl)c2nc(Nc3cc(C(F)(F)F)c(O)cc3Cl)n(C)c12 [Example 122, 5-Chloro-4-{[4-chloro-1-methyl-7-(1-propylbutyl)-1H-benzimidazol-2-yl]amino}-2-(trifluoromethyl)phenol]	197 to 199 °C
CCC(CC)c1ccc(O)c2nc(Oc3ccc(Cl)cc3Br)n(C)c12 [Example 147, 2-(2-Bromo-4-chlorophenoxy)-7-(1-ethylpropyl)-1-methyl-1H-benzimidazol-4-ol]	175 to 177 °C
CCC(CC)c1ccc(-c2ccco2)c2nc(Oc3ccc(Cl)cc3Br)n(C)c12 [Example 149, 2-(2-Bromo-4-chlorophenoxy)-7-(1-ethylpropyl)-4-(2-furyl)-1-methyl-1H-benzimidazole]	159 to 162 °C
CCCC(CCC)c1ccc(Cl)c2nc(Nc3cc(C(F)(F)F)c(Cl)cc3Cl)n(C)c12 [Example 113, 4-Chloro-N-[2,4-dichloro-5-(trifluoromethyl)phenyl]-1-methyl-7-(1-propylbutyl)-1H-benzimidazol-2-amine]	206 to 208 °C
COc1cc(Cl)cc(C)c1Nc1nc2c(Cl)ccc(C(O)(C(C)C)C(C)C)c2n1C [Example 107, 3-{4-Chloro-2-[(4-chloro-2-methoxy-6-methylphenyl)amino]-1-methyl-1H-benzimidazol-7-yl}-2,4-dimethylpentan-3-ol]	218 to 219 °C
CCCC(CCC)c1ccc(Cl)c2nc(Nc3cc(C(F)(F)F)ccc3OC)n(C)c12 [Example 112, 4-Chloro-N-[2-methoxy-5-(trifluoromethyl)phenyl]-1-methyl-7-(1-propylbutyl)-1H-benzimidazol-2-amine]	178 to 180 °C
CCC(CC)c1ccc(Cl)c2nc(Nc3c(C)cc(Cl)cc3OC)n(CC(=O)OC(C)C)c12 [Example 102, Isopropyl[4-chloro-2-[(4-chloro-2-methoxy-6-methylphenyl)amino]-7-(1-ethylpropyl)-1H-benzimidazol-1-yl]acetate]	205 to 207 °C
COc1cc(Cl)cc(C)c1Nc1nc2cccc(-c3c(OC)cccc3OC)c2n1C (as salt: trifluoroacetic acid salt) [Example 71, N-(4-chloro-2-methoxy-6-methylphenyl)-7-(2,6-dimethoxyphenyl)-1-methyl-1H-benzimidazol-2-amine Trifluoroacetic acid salt]	288 to 289 °C
CCC(CC)c1ccc(Cl)c2nc(Nc3ccc(Cl)cc3OC(F)(F)F)n(C)c12 [Example 81, 4-Chloro-N-[4-chloro-2-(trifluoromethoxy)phenyl]-7-(1-ethylpropyl)-1-methyl-1H-benzimidazol-2-amine]	126 to 128 °C
COc1cc(Cl)cc(C)c1Nc1nc2c(Cl)ccc(C(=O)C(C)(C)C)c2n1C [Example 105, 1-{4-Chloro-2-[(4-chloro-2-methoxy-6-methylphenyl)amino]-1-methyl-1H-benzimidazol-7-yl}-2,2-dimethylpropan-1-one]	249 to 250 °C
CCCC(CCC)c1ccc(Cl)c2nc(Oc3ccc(Cl)cc3Cl)n(C)c12 [Example 127, 4-Chloro-2-(2,4-dichlorophenoxy)-1-methyl-7-(1-propylbutyl)-1H-benzimidazole]	87 to 88 °C
CCCC(CCC)c1ccc(Cl)c2nc(Nc3c[nH]c(=O)cc3C)n(C)c12 [Example 116, 5-{[4-Chloro-1-methyl-7-(1-propylbutyl)-1H-benzimidazol-2-yl]amino}-4-methylpyridin-2(1H)-one]	237 to 239 °C
CCCC(CCC)c1ccc(Cl)c2nc(Oc3c(OC)cc(C)cc3OC)n(C)c12 [Example 133, 4-Chloro-2-(2,6-dimethoxy-4-methylphenoxy)-1-methyl-7-(1-propylbutyl)-1H-benzimidazole]	203 to 205 °C
CCC(CC)c1ccc(C(=O)OC)c2nc(Oc3c(C)cc(Cl)cc3Cl)n(C)c12 [Example 153, Methyl 2-(2,4-dichloro-6-methylphenoxy)-7-(1-ethylpropyl)-1-methyl-1H-benzimidazole-4-carboxylate]	177 to 178 °C
CCC(CC)c1cc(Br)cc2nc(Oc3c(C)cc(Cl)cc3C)n(C)c12 [Example 136, 5-Bromo-2-(4-chloro-2,6-dimethylphenoxy)-7-(1-ethylpropyl)-1-methyl-1H-benzimidazole]	214 to 216 °C
CCC(CC)c1ccc(Cl)c2nc(Nc3c(C)cc(Cl)cc3C)n(C)c12 [Example 83, 4-Chloro-N-(4-chloro-2,6-dimethylphenyl)-7-(1-ethylpropyl)-1-methyl-1H-benzimidazol-2-amine]	247 to 249 °C

SMILES	melting point
CCC(CC)c1ccc(Cl)c2nc(Nc3ccc(Br)cc3Cl)n(C)c12 [Example 85, N-(4-Bromo-2-chlorophenyl)-4-chloro-7-(1-ethylpropyl)-1-methyl-1H-benzimidazol-2-amine]	127 to 129 °C
C/C=C(/CC)c1ccc(Cl)c2nc(Nc3c(C)cc(Cl)cc3OC)n(C)c12 [Example 109, 4-Chloro-N-(4-chloro-2-methoxy-6-methylphenyl)-7-[(1Z)-1-ethylprop-1-en-1-yl]-1-methyl-1H-benzimidazol-2-amine]	166 to 168 °C
CCC(CC)c1ccc(Cl)c2nc(Nc3c(C)cc(Br)cc3C)n(C)c12 [Example 82, N-(4-Bromo-2,6-dimethylphenyl)-4-chloro-7-(1-ethylpropyl)-1-methyl-1H-benzimidazol-2-amine]	247 to 249 °C
CCCC(CCC)c1ccc(Cl)c2nc(Oc3c(C)cc(Cl)cc3C)n(C)c12 [Example 130, 4-Chloro-2-(4-chloro-2,6-dimethylphenoxy)-1-methyl-7-(1-propylbutyl)-1H-benzimidazole]	160 to 162 °C
CCC(CC)c1ccc(C#N)c2nc(Nc3c(C)cc(Cl)cc3OC)n(C)c12 [Example 152, 2-[(4-Chloro-2-methoxy-6-methylphenyl)amino]-7-(1-ethylpropyl)-1-methyl-1H-benzimidazole-4-carbonitrile]	223 to 225 °C
COc1cc(Cl)cc(C)c1Nc1nc2c(Cl)ccc(C(=C(C)C)C(C)C)c2n1C [Example 108, 4-Chloro-N-(4-chloro-2-methoxy-6-methylphenyl)-7-(1-isopropyl-2-methylprop-1-en-1-yl)-1-methyl-1H-benzimidazol-2-amine]	166 to 168 °C
CCC(CC)c1ccc(Cl)c2nc(Oc3c(OC)cc(C)nc3C)n(C)c12 [Example 139, 4-Chloro-7-(1-ethylpropyl)-2-[(4-methoxy-2,6-dimethylpyridin-3-yl)oxy]-1-methyl-1H-benzimidazole]	183 to 184 °C
CCC(CC)c1ccc(Cl)c2nc(Oc3c(Cl)cc(Cl)cc3C(=O)N(C)C)n(C)c12 [Example 143, 3,5-Dichloro-2-{[4-chloro-7-(1-ethylpropyl)-1-methyl-1H-benzimidazol-2-yl]oxy}-N,N-dimethylbenzamide]	141 to 143 °C
CCC(CC)c1ccc(C(F)(F)F)c2nc(Nc3c(C)cc(Cl)cc3OC)n(C)c12 [Example 158, N-(4-Chloro-2-methoxy-6-methylphenyl)-7-(1-ethylpropyl)-1-methyl-4-(trifluoromethyl)-1H-benzimidazol-2-amine]	187 to 188 °C
CCCC(CCC)c1ccc(Cl)c2nc(Nc3ccc(Cl)cc3Cl)n(C)c12 [Example 91, 4-Chloro-N-(2,4-dichlorophenyl)-1-methyl-7-(1-propylbutyl)-1H-benzimidazol-2-amine]	146 to 148 °C
CCC(CC)c1ccc(Cl)c2nc(Oc3c(Cl)cc(Cl)cc3Cl)n(C)c12 [Example 138, 4-Chloro-7-(1-ethylpropyl)-1-methyl-2-(2,4,6-trichlorophenoxy)-1H-benzimidazole]	155 to 157 °C
CCCC(CCC)c1ccc(Cl)c2nc(Nc3c(C)cc(Br)cc3OC)n(C)c12 [Example 89, N-(4-Bromo-2-methoxy-6-methylphenyl)-4-chloro-1-methyl-7-(1-propylbutyl)-1H-benzimidazol-2-amine]	210 to 211 °C
CCC(CC)c1ccc(C#N)c2nc(Oc3ccc(Cl)cc3Br)n(C)c12 [Example 150, 2-(2-Bromo-4-chlorophenoxy)-7-(1-ethylpropyl)-1-methyl-1H-benzimidazole-4-carbonitrile]	136 to 137 °C
CCC(CC)c1ccc(Br)c2nc(Nc3c(C)cc(Cl)cc3OC)n(C)c12 [Example 96, 4-Bromo-N-(4-chloro-2-methoxy-6-methylphenyl)-7-(1-ethylpropyl)-1-methyl-1H-benzimidazol-2-amine]	198 to 199 °C
CCC(CC)c1ccc(Cl)c2nc(Oc3c(Cl)cc(OC(F)(F)F)cc3Cl)n(C)c12 [Example 140, 4-Chloro-2-[2,6-dichloro-4-(trifluoromethoxy)phenoxy]-7-(1-ethylpropyl)-1-methyl-1H-benzimidazole]	145 to 147 °C
CCC(CC)c1ccc(Cl)c2nc(Nc3c(Cl)cc(OC(F)(F)F)cc3Cl)n(C)c12 [Example 79, 4-Chloro-N-[2,6-dichloro-4-(trifluoromethoxy)phenyl]-7-(1-ethylpropyl)-1-methyl-1H-benzimidazol-2-amine]	147 to 149 °C
